Results as given in PMC10988555, “Exploiting Co(III)-Cyclopentadienyl Complexes To Develop Anticancer Agents” (Inorganic Chemistry, 2024).
Blank lines part the entries; values can stand above or below the compound they belong to.

Assays:
[1] = test system: A2780 (human ovarian carcinoma) cell line; experiment: Antiproliferative activity, MTS assay, A2780; type: cell-based; conditions: for IC50: 48 h exposure, MTS assay; for Selectivity index (SI) of ligands, A2780: Table S3, values with * calculated taking fibroblast IC50 as 100 µM (minimal value)
Procedure: (§1) Human colorectal carcinoma cell line (HCT116), human breast cancer cell lines (MDA-MB-231 and MCF-7), and normal human primary dermal fibroblasts neonatal (PCS-201-010) cell line were grown in DMEM (Dulbecco’s modified Eagle’s medium) (Invitrogen Corp., Grand Island, NY, USA) supplemented with 10% (v/v) fetal bovine serum and 1% (v/v) antibiotic/antimycotic solution (Invitrogen Corp.). The human ovarian carcinoma (A2780) cell line was cultivated using RPMI (Roswell Park Memorial Institute) medium supplemented as in DMEM medium. The supplemented medium is named a complete medium. Cells were grown in an incubator with a humidified atmosphere at 5% (v/v) CO2 and 37 °C. All cell lines were purchased from ATCC (ATCC, American Type Culture Collection).
(§2) The evaluation of the cytotoxic potential of complexes 1–4 was obtained through in vitro measurements of the antiproliferative activity of these complexes. Cells were plated in 96-well plates at 7.5 × 10^4 cells/mL and incubated at 37 °C with 5% (v/v) CO2. After 24 h, the culture medium was replaced with fresh medium (100 μL) containing 0.1–50 μM of the different complexes and incubated for 48 h in tumor cell lines or containing 0.1–100 μM of the different complexes and incubated for 48 h in fibroblasts. […] The fibroblast cell line was used as a control of the cytotoxicity of the complexes for healthy cells. Cell viability was evaluated using Cell Titer 96 Aqueous Non-Radioactive Cell Proliferation Assay (Promega, Madison, WI, USA) using 3-(4,5-dimethylthiazol-2-yl)-5-(3-carboxymethoxyphenyl)-2-(4-sulfophenyl)-2H-tetrazolium inner salt (MTS), as described previously.[60] In metabolically active cells, enzymes present in the mitochondria catalyze a reaction in which NADPH/NADH is produced. These enzymes reduce the MTS reagent into a brownish product, Formazan, which can be quantified by measuring the absorbance at 490 nm. The quantity of formazan produced is directly proportional to the number of viable cells in the culture. This quantification was executed with a Biorad microplate reader Model 680 (Bio-Rad, Hercules, CA, USA). Half maximal inhibitory concentration (IC50) was calculated using GraphPad Prism 6 (GraphPadSoftware). We have calculated the ratio between the IC50 of fibroblasts and the IC50 of HCT116, A2780, MDA-MB-231, or MCF-7 cell lines for complexes 1–4 that was named herein as the Selectivity index (SI). To ensure the solubility of the complexes in all biological assays, complex solutions were freshly prepared and well solubilized before addition to the cells.

[2] = test system: HCT116 (human colorectal carcinoma) cell line; experiment: Antiproliferative activity, MTS assay, HCT116; type: cell-based; conditions: for IC50: 48 h exposure, MTS assay; for Selectivity index (SI) of ligands, HCT116: Table S3, values with * calculated taking fibroblast IC50 as 50 µM (minimal value)
Procedure: as §1, §2

[3] = test system: MDA-MB-231 (human breast cancer) cell line; experiment: Antiproliferative activity, MTS assay, MDA-MB-231; type: cell-based; conditions: 48 h exposure
Procedure: as §1, §2

[4] = test system: MCF-7 (human breast cancer) cell line; experiment: Antiproliferative activity, MTS assay, MCF-7; type: cell-based; conditions: 48 h exposure, MTS assay
Procedure: as §1, §2

[5] = test system: normal human primary dermal fibroblasts; experiment: Antiproliferative activity, MTS assay, healthy fibroblasts; type: cell-based; conditions: 48 h exposure, healthy human cells
Procedure: as §1, §2

[6] = Octanol-water partition coefficient, shake-flask method; type: physicochemical; conditions: room temperature
Procedure: The lipophilicity of the CoCp complexes was estimated by the shake-flask method.[54] Before the assays, n-octanol was vigorously mixed with distilled water for 24 h at room temperature to promote solvent saturation of both phases. After separating the phases, the complexes were dissolved in the n-octanol phase to obtain solutions 1.0 × 10^–5 to 2.5 × 10^–4 M. Then, each solution was equilibrated with water for 4 h in a mechanical shaker, at a phase ratio of 2 mL n-octanol:2 mL water. Afterward, the aqueous and octanol layers were carefully separated by centrifugation (5000 rpm, 10 min), and the UV–vis absorption spectra of the complexes were recorded in the n-octanol phase. For each sample, the concentration was determined by using a calibration curve in n-octanol. All experiments were performed in triplicate for each complex, being the averages used for calculation purposes. Finally, the values of the partition coefficients were calculated by resorting to the following eq (eq 1): [drawing 1] 1 where logPoct/water represents the octanol–water partition coefficient, [complex]oct represents the concentration of the complex in the n-octanol phase, and [complex]water represents the concentration of the complex in the water phase.

A2780 cell line = experiment: Autophagy induction, flow cytometry; type: cell-based, human; conditions: A2780, 48 h; complexes at IC50, DOX 0.4 μM, cisplatin 5 μM; rapamycin 500 nM for 15 h
Procedure: The autophagy induced by complexes 2–4 was evaluated using the Autophagy Assay Kit (ab139484, Abcam, Cambridge, United Kingdom) according to the manufacturer’s instructions. For this, the A2780 cell line was seeded at a density of 2 × 10^5 cells/well in 6-well plates and incubated for 24 h at the conditions mentioned before. […] The positive control Rapamycin at 500 nM was incubated for only 15 h. After 48 h incubation, the cells were washed with PBS 1×, detached with TE, and treated with the Autophagy detection kit (Abcam, Cambridge, UK) according to the manufacturer’s instructions. The evaluation of autophagy induction was done through the Attune acoustic focusing flow cytometer (ThermoFisher Scientific) and respective software.

A2780 cells = experiment: Cell cycle progression (PI flow cytometry, double thymidine block); type: cell-based, human; conditions: A2780, 24 h; complexes at IC50, DOX 0.4 μM, cisplatin 5 μM
Procedure: The interference of the copper complexes 2–4 in the cell cycle progression was evaluated in A2780 cells, seeded in 6-weel plates, with a density of 2 × 10^5 cells/well, and incubated for 8 h at the same conditions as described above. After that incubation time, the cells were synchronized in early S-phase with a 2 mM thymidine solution (Sigma, St. Louis, USA) for a 16 h period. Media with thymidine was replaced by fresh media and, after 8 h, another 2 mM thymidine solution was added to the wells (double thymidine block) and incubated for 16 h. […] Cells were incubated for 9, 18, or 24 h, and, at each hour, the cells were treated with TE and centrifuges at 650 × g for 5 min at 4 °C. The pellet was resuspended in PBS 1× and centrifuged at 3000 × g for 5 min at 4 °C. Later, the pellet was resuspended in 100 μL of PBS 1×, and 1 mL of a solution of 80% (v/v) ethanol was gently added to the cells. Cells were stored at 4 °C for at least 12 h and then centrifuged for 10 min at 7500 × g at 4 °C, treated with 250 μL of 50 μg/mL RNase A, and incubated for 30 min at 37 °C. After incubation, 100 μL of PI (25 μg/mL) was added to the cells as well as 650 μL of PBS 1×. The DNA content was evaluated on an Attune Acoustic Focusing Flow Cytometer (ThermoFisher Scientific) and results were analyzed by the respective software.

DNA of A2780 cells = experiment: Single-cell gel electrophoresis (comet assay); type: cell-based, human; conditions: A2780; complexes 10× IC50 for 12 h; H2O2 0.05% for 30 min at RT
Procedure: A2780 cells were seeded in 6-well plates with a density of 1 × 10^6 cells/well and incubated for 24 h in an incubator with a humidified atmosphere at 5% (v/v) CO2 and 37 °C. […] The complexes and DMSO were incubated at 37 °C for 12 h and H2O2 for 30 min at RT. Cells were harvested with a cell scraper and solutions with 1 × 10^5 cells/mL in PBS were prepared. It was withdrawn 10 μL from the solutions and added to 90 μL of 1.5% (w/v) low melting point agarose in 1× PBS and dropped on the slides prepared previously with a coating of 1.5% (w/v) agarose (normal melting point agarose) in 1× TAE buffer. After drying at 4 °C for 15 min, the slides were dipped into lysis solution (450 mM NaCl, 3.72% EDTA, 5 mM Tris; to which 10% (v/v) DMSO and 1% (v/v) Triton-X were added just before use) for 1 h at 4 °C, followed by their being dipped for 40 min into cold electrophoresis solution (1 mM EDTA, 300 mM NaOH, pH 13). Electrophoresis was performed at 4 °C for 30 min at 25 V using a Sub-Cell model 96 apparatus (Bio-Rad). Afterward, slides were placed in 0.1 M Tris–HCl buffer (pH 7.5) at 4 °C for 15 min for neutralization, followed by 15 min in methanol at 4 °C and drying at 37 °C. For visualization of comets, slides were hydrated with distilled water at 4 °C for 30 min, stained with 20 μL of GelRed working solution (3×), and covered with new coverslips. The slides were observed under a Ti–U Eclipse inverted microscope (Nikon Instruments, Japan) and analyzed by CometScore version 2.1 (TriTek). About 100 cells per sample were analyzed. The percentage of DNA in the tail was used as a measure of the total DNA strand breakage.

Compound: O=S(=O)([O-])C(F)(F)F.O=S(=O)([O-])C(F)(F)F.[Co+3].c1cc[cH-]c1.c1ccc(-c2ccccn2)nc1.c1ccc(P(c2ccccc2)c2ccccc2)cc1 [Complex 1, [Co(η^5-C5H5)(PPh3)(bipy)][(CF3SO3)2]]
IC50 [1]: 18.1 ± 0.1 µM | IC50 [2]: > 50 µM | IC50 [3]: > 50 µM | IC50 [4]: > 50 µM | IC50 [5]: > 100 µM | logP (n-octanol/water partition coefficient) [6]: −0.67 ± 0.02

Compound: Cc1ccnc(-c2cc(C)ccn2)c1 [Me2bipy, 4,4′-dimethyl-2,2′-bipyridine]
IC50 ([1]; Homo sapiens, A2780): 17.6 ± 0.1 µM | Selectivity index (SI) of ligands, A2780 [1]: 2.8 | fold less cytotoxic than Phen and NH2phen ligands ([1]; free ligand, A2780 and HCT116): about 10 fold | IC50 ([2]; Homo sapiens, HCT-116): 12.4 ± 0.2 µM | Selectivity index (SI) of ligands, HCT116 [2]: 4.0 | IC50 ([5]; Fibroblast): > 50 µM

Compound: Nc1cc2cccnc2c2ncccc12 [NH2phen, 5-amino-1,10′-phenanthroline]
IC50 ([1]; Homo sapiens, A2780): 1.9 ± 0.08 µM | Selectivity index (SI) of ligands, A2780 [1]: 15.2 | IC50 ([2]; Homo sapiens, HCT-116): 2.3 ± 0.06 µM | Selectivity index (SI) of ligands, HCT116 [2]: 13.1 | IC50 ([5]; Fibroblast): 29.9 ± 0.4 µM

Compound: c1ccc(P(c2ccccc2)c2ccccc2)cc1 [PPh3, triphenylphosphane]
IC50 ([1]; Homo sapiens, A2780): 37.8 ± 0.1 µM | Selectivity index (SI) of ligands, A2780 [1]: 1.3 | IC50 ([2]; Homo sapiens, HCT-116): > 50 µM | IC50 ([5]; Fibroblast): > 50 µM

Compound: c1cnc2c(c1)ccc1cccnc12 [Phen, 1,10′-phenanthroline]
IC50 ([1]; Homo sapiens, A2780): 2.4 ± 0.05 µM | Selectivity index (SI) of ligands, A2780 [1]: 20.9 | IC50 ([2]; Homo sapiens, HCT-116): 4.1 ± 0.04 µM | Selectivity index (SI) of ligands, HCT116 [2]: 12.4 | IC50 ([5]; Fibroblast): 50.1 ± 0.1 µM

Compound: O=[C]=[Co]([I])([I])[CH]1C=CC=C1 [[CoCp(CO)I2]]
IC50 [1]: 29.9 ± 0.1 µM | Selectivity index (SI) of ligands, A2780 [1]: 1.7 | IC50 [2]: > 50 µM | IC50 [5]: > 50 µM

Compound: c1ccc(-c2ccccn2)nc1 [bipy, 2,2′-bipyridine]
IC50 ([1]; Homo sapiens, A2780): > 50 µM | IC50 ([2]; Homo sapiens, HCT-116): > 50 µM | IC50 ([5]; Fibroblast): > 50 µM

Compound: N.N.[Cl][Pt][Cl] [cisplatin, reference compound]
IC50 [1]: 1.9 ± 0.2 µM | IC50 [2]: 15.6 ± 5.3 µM | levels of autophagy (A2780 cell line): 96.7% | % of cells in the G2/M phase (A2780 cells): 31.3%

IC50 ([1]; Homo sapiens, A2780): 0.1 ± 0.1 µM | IC50 ([2]; Homo sapiens, HCT-116): 0.5 ± 0.1 µM
Compound: COc1cccc2c1C(=O)c1c(O)c3c(c(O)c1C2=O)C[C@@](O)(C(=O)CO)C[C@@H]3O[C@H]1C[C@H](N)[C@H](O)[C@H](C)O1 [doxorubicin, reference compound]
levels of autophagy (A2780 cell line): 84.1% | % of cells in the G2/M phase (A2780 cells): 77.9%

Compound: OO [hydrogen peroxide, reference compound]
% of DNA in the tail (DNA of A2780 cells): 73%

Compound: CO[C@H]1C[C@@H]2CC[C@@H](C)[C@@](O)(O2)C(=O)C(=O)N2CCCC[C@H]2C(=O)O[C@H]([C@H](C)C[C@@H]2CC[C@@H](O)[C@H](OC)C2)CC(=O)[C@H](C)/C=C(\C)[C@@H](O)[C@@H](OC)C(=O)[C@H](C)C[C@H](C)/C=C/C=C/C=C/1C [rapamycin, Rapamycin, reference compound]
levels of autophagy (A2780 cell line): 72.93%
